In PubChem BioAssay (NCI):
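In this assay, cells in 96-well plates receive the compound at five concentrations for 48 hours. Endpoints are linearly interpolated between the surrounding concentrations. Definition used: TGI = concentration required for complete inhibition of growth.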

Key:
Experiment in all cases: NCI tumour cell line growth inhibition, 48 h
786-0 renal = test system: 786-0 renal
A498 renal = test system: A498 renal
A549 NSCLC = test system: A549 NSCLC
ACHN renal = test system: ACHN renal
CAKI-1 renal = test system: CAKI-1 renal
COLO 205 colon = test system: COLO 205 colon
DU-145 prostate = test system: DU-145 prostate
EKVX NSCLC = test system: EKVX NSCLC
HCC-2998 colon = test system: HCC-2998 colon
HCT-116 colon = test system: HCT-116 colon
HCT-15 colon = test system: HCT-15 colon
HOP-62 NSCLC = test system: HOP-62 NSCLC
HS 578T breast = test system: HS 578T breast
HT29 colon = test system: HT29 colon
IGROV1 ovarian = test system: IGROV1 ovarian
K-562 leukemia = test system: K-562 leukemia
KM12 colon = test system: KM12 colon
LOX IMVI melanoma = test system: LOX IMVI melanoma
M14 melanoma = test system: M14 melanoma
MALME-3M melanoma = test system: MALME-3M melanoma
MCF7 breast = test system: MCF7 breast
MDA-MB-231 breast = test system: MDA-MB-231 breast
MDA-MB-435 = test system: MDA-MB-435
MDA-N = test system: MDA-N
MOLT-4 leukemia = test system: MOLT-4 leukemia
NCI-H226 lung = test system: NCI-H226 lung
NCI-H23 lung = test system: NCI-H23 lung
NCI-H460 lung = test system: NCI-H460 lung
NCI-H522 lung = test system: NCI-H522 lung
NCI/ADR-RES ovarian = test system: NCI/ADR-RES ovarian
OVCAR-3 ovarian = test system: OVCAR-3 ovarian
OVCAR-4 ovarian = test system: OVCAR-4 ovarian
OVCAR-5 ovarian = test system: OVCAR-5 ovarian
OVCAR-8 ovarian = test system: OVCAR-8 ovarian
PC-3 prostate = test system: PC-3 prostate
RPMI-8226 leukemia = test system: RPMI-8226 leukemia
SF-268 CNS = test system: SF-268 CNS
SF-295 CNS = test system: SF-295 CNS
SF-539 CNS = test system: SF-539 CNS
SK-MEL-2 melanoma = test system: SK-MEL-2 melanoma
SK-MEL-28 melanoma = test system: SK-MEL-28 melanoma
SK-MEL-5 melanoma = test system: SK-MEL-5 melanoma
SK-OV-3 ovarian = test system: SK-OV-3 ovarian
SN12C renal = test system: SN12C renal
SNB-19 CNS = test system: SNB-19 CNS
SNB-75 CNS = test system: SNB-75 CNS
SW-620 colon = test system: SW-620 colon
T-47D breast = test system: T-47D breast
TK-10 renal = test system: TK-10 renal
U251 CNS = test system: U251 CNS
UACC-257 melanoma = test system: UACC-257 melanoma
UACC-62 melanoma = test system: UACC-62 melanoma
UO-31 renal = test system: UO-31 renal
BT-549 breast = test system: BT-549 breast
CCRF-CEM leukemia = test system: CCRF-CEM leukemia
HL-60(TB) leukemia = test system: HL-60(TB) leukemia
RXF 393 renal = test system: RXF 393 renal
SR leukemia = test system: SR leukemia

In the case of `C[n+]1c2ccccc2c(C(=O)Nc2ccc(S(=O)(=O)N=C(N)N)cc2)c2ccccc21`, the TGI (786-0 renal) is reported as > 100 µM, the TGI (A498 renal) is reported as > 100 µM and the TGI (A549 NSCLC) is reported as > 100 µM. For the same molecule, the TGI (ACHN renal) was > 100 µM, the TGI (CAKI-1 renal) was > 100 µM and the TGI (COLO 205 colon) was > 100 µM. For the same molecule, the TGI (DU-145 prostate) was > 100 µM, the TGI (EKVX NSCLC) was > 100 µM and the TGI (HCC-2998 colon) was > 100 µM. The TGI (HCT-116 colon) was > 100 µM, the TGI (HCT-15 colon) was > 100 µM and the TGI (HOP-62 NSCLC) was > 100 µM. The TGI (HS 578T breast) was > 100 µM, the TGI (HT29 colon) was > 100 µM and the TGI (IGROV1 ovarian) was > 100 µM. For the same molecule, the TGI (K-562 leukemia) was > 100 µM, the TGI (KM12 colon) was > 100 µM and the TGI (LOX IMVI melanoma) was > 100 µM. For the same molecule, the TGI (M14 melanoma) was > 100 µM, the TGI (MALME-3M melanoma) was > 100 µM and the TGI (MCF7 breast) was > 100 µM. The TGI (MDA-MB-231 breast) was 76.5 µM, the TGI (MDA-MB-435) was > 100 µM and the TGI (MDA-N) was > 100 µM. The TGI (MOLT-4 leukemia) was > 100 µM, the TGI (NCI-H226 lung) was > 100 µM and the TGI (NCI-H23 lung) was > 100 µM. The TGI (NCI-H460 lung) was > 100 µM, the TGI (NCI-H522 lung) was > 100 µM and the TGI (NCI/ADR-RES ovarian) was > 100 µM. The TGI (OVCAR-3 ovarian) was > 100 µM, the TGI (OVCAR-4 ovarian) was > 100 µM and the TGI (OVCAR-5 ovarian) was > 100 µM. The TGI (OVCAR-8 ovarian) was > 100 µM, the TGI (PC-3 prostate) was > 100 µM and the TGI (RPMI-8226 leukemia) was > 100 µM. The TGI (SF-268 CNS) was > 100 µM, the TGI (SF-295 CNS) was > 100 µM and the TGI (SF-539 CNS) was > 100 µM. The TGI (SK-MEL-2 melanoma) was > 100 µM, the TGI (SK-MEL-28 melanoma) was > 100 µM and the TGI (SK-MEL-5 melanoma) was > 100 µM. The TGI (SK-OV-3 ovarian) was > 100 µM, the TGI (SN12C renal) was > 100 µM and the TGI (SNB-19 CNS) was > 100 µM. The TGI (SNB-75 CNS) was > 100 µM, the TGI (SW-620 colon) was > 100 µM and the TGI (T-47D breast) was > 100 µM. The TGI (TK-10 renal) was > 100 µM, the TGI (U251 CNS) was > 100 µM and the TGI (UACC-257 melanoma) was > 100 µM. The TGI (UACC-62 melanoma) was > 100 µM and the TGI (UO-31 renal) was > 100 µM.

With `COc1cc(/C=N/Nc2nnc3c4ccccc4c4ncccc4c3n2)cc(OC)c1OC` the TGI (786-0 renal) was > 10 µM, the TGI (A549 NSCLC) was > 10 µM and the TGI (ACHN renal) was > 10 µM. For the same molecule, the TGI (BT-549 breast) was > 10 µM, the TGI (CCRF-CEM leukemia) was > 10 µM and the TGI (DU-145 prostate) was > 10 µM. The TGI (EKVX NSCLC) was > 10 µM, the TGI (HL-60(TB) leukemia) was > 10 µM and the TGI (HS 578T breast) was > 10 µM. For the same molecule, the TGI (HT29 colon) was 5.4 µM, the TGI (IGROV1 ovarian) was > 10 µM and the TGI (K-562 leukemia) was > 10 µM. For the same molecule, the TGI (KM12 colon) was > 10 µM, the TGI (M14 melanoma) was > 10 µM and the TGI (MDA-MB-435) was > 10 µM. The TGI (MDA-N) was 8.09 µM, the TGI (MOLT-4 leukemia) was > 10 µM and the TGI (NCI-H226 lung) was 9.12 µM. For the same molecule, the TGI (NCI-H23 lung) was 8.25 µM, the TGI (NCI-H460 lung) was 5.68 µM and the TGI (NCI-H522 lung) was 5.75 µM. The TGI (OVCAR-3 ovarian) was > 10 µM, the TGI (OVCAR-4 ovarian) was > 10 µM and the TGI (OVCAR-5 ovarian) was > 10 µM. The TGI (OVCAR-8 ovarian) was 6.58 µM, the TGI (RXF 393 renal) was > 10 µM and the TGI (SF-268 CNS) was > 10 µM. For the same molecule, the TGI (SF-295 CNS) was > 10 µM, the TGI (SF-539 CNS) was > 10 µM and the TGI (SK-MEL-5 melanoma) was > 10 µM. The TGI (SNB-19 CNS) was > 10 µM, the TGI (SNB-75 CNS) was > 10 µM and the TGI (SR leukemia) was > 10 µM. The TGI (T-47D breast) was 4.11 µM, the TGI (TK-10 renal) was > 10 µM and the TGI (U251 CNS) was > 10 µM. The TGI (UACC-257 melanoma) was 8.23 µM and the TGI (UO-31 renal) was > 10 µM.
